Data reported in patent publication US4735955A, “2-substituted cycloheptoimidazole derivatives and anti-ulcerative agents containing the same” (Kotobuki Seiyaku Co., Ltd., priority 1985, dated 1988).

Assays:
[1] = system: gastric-acid secretion; test: Gastric acid antisecretory activity, pylorus-ligated rat (method of Shay); assay type: in vivo; conditions: intraduodenal, 50 mg/kg intraduodenally just after pylorus ligation, 4 hours after ligation, read-out: Total Acid Inhibition
Method: Gastric acid antisecretory activities
Inhibitory activities of gastric-acid secretion are determined by the method of Shay (Gastroenterology 26, 906). Rats are fasted for 24 hours and pylorus ligation is carried out under light anesthesia.
Drug is given intraduodenally just after the ligation. Four hours after ligation, the stomach of the rat is removed and the acidity of gastric juice is determined.

[2] = Cytoprotective activity, inhibition of ethanol-induced ulcer (method of Robert); assay type: in vivo; conditions: rat, 100 mg/kg perorally 30 minutes before 1 ml absolute ethanol, stomach removed one hour after ethanol
Method: Cytoprotective Activities
Inhibitory activities of ethanol-induced ulcer are determined by the method of Robert (Gastroenterology 77, 433~443). Rats are fasted for 24 hours and are given 1 ml of absolute ethanol perorally. One hour after administration of ethanol, the stomach of the rat is removed. The length of each ulcer occurring in the grandulor stomach is determined and each ulcer in one rat is accounted as the ulcer-index. The test compounds are given perorally 30 minutes before absolute ethanol administration.

[3] = molecular target: T1, (H^+,K^+)ATPase (Sus scrofa, UniProt P19156); test: Inhibition of (H^+,K^+)ATPase activity (method of Fellenius); assay type: biochemical; conditions: 3 × 10^-4 M, pig gastric mucosa, pH 7.4, 37° C.
T1 construct: (H^+,K^+)ATPase is prepared from the pig gastric mucosa; from tissue; host or cells: pig gastric mucosa
Method: Inhibition of (H^+,K^+)ATPase activities. Inhibition of (H^+,K^+) ATPase activities is determined by the method of F. Fellenius et al., Nature 290, pp. 159~161, 1981. (H^+,K^+)ATPase is prepared from the pig gastric mucosa and the test compound is incubated with […], 40 mM of tris-buffer (pH 7.4), 2 mM of MgCl2 and 10 mM of KCl at 37° C. Inorganic phosphate occurring by stimulation of ATPase is determined.

T1 sequence (P19156 2-1034 limits assumed): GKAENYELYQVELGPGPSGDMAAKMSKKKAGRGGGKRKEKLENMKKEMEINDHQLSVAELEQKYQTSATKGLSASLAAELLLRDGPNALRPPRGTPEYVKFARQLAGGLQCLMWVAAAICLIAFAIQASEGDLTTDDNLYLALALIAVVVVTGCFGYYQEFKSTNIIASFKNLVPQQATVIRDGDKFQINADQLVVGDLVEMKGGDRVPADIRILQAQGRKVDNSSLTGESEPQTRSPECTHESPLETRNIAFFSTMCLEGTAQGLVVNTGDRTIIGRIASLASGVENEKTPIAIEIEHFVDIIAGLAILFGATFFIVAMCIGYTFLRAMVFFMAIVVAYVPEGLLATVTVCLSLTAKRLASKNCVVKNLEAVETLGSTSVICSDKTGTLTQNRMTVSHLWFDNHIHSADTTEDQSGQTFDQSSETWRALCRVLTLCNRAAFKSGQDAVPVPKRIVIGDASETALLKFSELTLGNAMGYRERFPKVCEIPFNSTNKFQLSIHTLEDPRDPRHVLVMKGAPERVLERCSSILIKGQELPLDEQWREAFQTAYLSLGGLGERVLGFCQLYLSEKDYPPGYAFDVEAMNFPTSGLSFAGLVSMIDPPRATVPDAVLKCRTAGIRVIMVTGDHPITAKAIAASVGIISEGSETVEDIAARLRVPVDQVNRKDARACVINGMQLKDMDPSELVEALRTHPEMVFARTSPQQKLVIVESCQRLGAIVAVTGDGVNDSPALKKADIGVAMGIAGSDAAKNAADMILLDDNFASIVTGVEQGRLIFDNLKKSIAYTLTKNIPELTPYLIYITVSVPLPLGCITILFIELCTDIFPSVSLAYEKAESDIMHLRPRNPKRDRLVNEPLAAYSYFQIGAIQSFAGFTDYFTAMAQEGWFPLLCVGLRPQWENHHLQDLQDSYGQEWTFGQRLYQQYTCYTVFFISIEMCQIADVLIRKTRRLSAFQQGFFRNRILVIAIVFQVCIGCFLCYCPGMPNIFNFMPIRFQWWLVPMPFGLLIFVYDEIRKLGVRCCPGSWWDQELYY
T1 sequence (P18434 whole entry partner): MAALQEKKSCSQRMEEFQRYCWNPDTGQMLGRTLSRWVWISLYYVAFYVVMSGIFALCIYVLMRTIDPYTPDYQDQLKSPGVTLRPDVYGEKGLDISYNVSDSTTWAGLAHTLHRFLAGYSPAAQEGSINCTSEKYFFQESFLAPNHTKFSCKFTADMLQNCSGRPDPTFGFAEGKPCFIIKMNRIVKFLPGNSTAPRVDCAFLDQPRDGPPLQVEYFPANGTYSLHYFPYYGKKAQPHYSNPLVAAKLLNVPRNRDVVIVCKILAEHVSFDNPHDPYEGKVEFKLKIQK

Structure (SMILES): c1ccc(CSc2nc3cccccc-3n2)cc1 [Compound 31, 2-(Phenyl)methylthio-cycloheptoimidazole]
- inhibition in vivo at 50 mg/kg [1]: 78.9%

Structure (SMILES): c1ccc2nc(SCCn3cnc4ccccc43)nc-2cc1 [Compound 3, 2-(1-Benzimidazolyl)ethylthio-cycloheptoimidazole]
- inhibition in vivo at 50 mg/kg [1]: 22.4%

Structure (SMILES): CC(C)c1ccc2nc(SCc3csc(N)n3)nc-2cc1 [Compound 15, 2-(2-Aminothiazole-4-yl)methylthio-6-isopropyl-cycloheptoimidazole]
- inhibition in vivo at 50 mg/kg [1]: 21%
- Inhibition of ethanol-induced ulcer [2]: 90.0%

Structure (SMILES): c1ccc2nc(SCc3ccn[nH]3)nc-2cc1 [Compound 10, 2-(5-Pyrazolyl)methylthio-cycloheptoimidazole]
- inhibition in vivo at 50 mg/kg [1]: 54.4%

Structure (SMILES): Cc1noc(C)c1C[S+]([O-])c1nc2cccccc-2n1 (centres unmarked) [Compound 53, 2(3,5-Dimethylisoxazole-4-yl)methylthio-cycloheptoimidazole-S-oxide]
- inhibition in vivo at 50 mg/kg [1]: 95.7%
- inhibition at 300 µM [3]: 45%

Structure (SMILES): COc1ccc(C[S+]([O-])c2nc3cccccc-3n2)cc1 (centres unmarked) [Compound 47, 2-(p-Methoxyphenyl)methylthio-cycloheptoimidazole-S-oxide]
- inhibition in vivo at 50 mg/kg [1]: 90.7%
- inhibition at 300 µM [3]: 32%

Structure (SMILES): Clc1ccc(CSc2nc3cccccc-3n2)cc1 [Compound 28, 2-(p-Chlorophenyl)methylthio-cycloheptoimidazole]
- inhibition in vivo at 50 mg/kg [1]: 39.1%

Structure (SMILES): [O-][S+](Cc1c[nH]cn1)c1nc2cccccc-2n1 (centres unmarked) [Compound 51, 2-(4-imidazolyl)methylthio-cycloheptoimidazole-S-oxide]
- inhibition in vivo at 50 mg/kg [1]: 63.6%

Structure (SMILES): COc1ccc(C[S+]([O-])c2nc3cccccc-3n2)c(OC)c1OC (centres unmarked) [Compound 44, 2-(2,3,4-Trimethoxyphenyl)methylthio-cycloheptoimidazole-S-oxide]
- inhibition in vivo at 50 mg/kg [1]: 89.8%
- inhibition at 300 µM [3]: 25%

Structure (SMILES): Nc1nc(CSc2nc3cccccc-3n2)cs1 [Compound 14, 2-(2-Aminothiazole-4-yl)methylthio-cycloheptoimidazole]
- Inhibition of ethanol-induced ulcer [2]: 90.3%

Structure (SMILES): Nc1ccccc1CSc1nc2cccccc-2n1 [Compound 57, 2-(o-aminophenyl)methylthio-cycloheptoimidazol]
- inhibition in vivo at 50 mg/kg [1]: 92.9%
- inhibition at 300 µM [3]: 46%

Structure (SMILES): c1ccc2nc(SCc3cccnc3)nc-2cc1 [Compound 9, 2-(3-Pyridyl)methylthio-cycloheptoimidazole]
- Inhibition of ethanol-induced ulcer [2]: 83.1%

Structure (SMILES): Cc1cc(C[S+]([O-])c2nc3cccccc-3n2)on1 (centres unmarked) [Compound 52, 2-(3-Methylisoxazole-5-yl)methylthio-cycloheptoimidazole-S-oxide]
- inhibition in vivo at 50 mg/kg [1]: 96.9%

Structure (SMILES): Cc1oncc1CSc1nc2cccccc-2n1 [Compound 34, 2-(5-Methylisoxazole-4-yl)methylthio-cycloheptoimidazole]
- inhibition in vivo at 50 mg/kg [1]: 70.1%

Structure (SMILES): Cc1ccc(C[S+]([O-])c2nc3cccccc-3n2)cc1 (centres unmarked) [Compound 45, 2-(p-Tolyl)methylthio-cycloheptoimidazole-S-oxide]
- inhibition in vivo at 50 mg/kg [1]: 90.7%

Structure (SMILES): c1ccc2nc(SCc3ccncc3)nc-2cc1 [Compound 12, 2-(4-Pyridyl)methylthio-cycloheptoimidazole]
- inhibition in vivo at 50 mg/kg [1]: 66.8%

Structure (SMILES): Nc1cccc(CSc2nc3cccccc-3n2)c1 [Compound 30, 2-(m-Aminophenyl)methylthio-cycloheptoimidazole]
- inhibition in vivo at 50 mg/kg [1]: 52.5%

Structure (SMILES): COc1ccc(CSc2nc3cccccc-3n2)cc1 [Compound 26, 2-(p-Methoxyphenyl)methylthio-cycloheptoimidazole]
- inhibition in vivo at 50 mg/kg [1]: 81.6%

Structure (SMILES): c1ccc2nc(SCc3c[nH]cn3)nc-2cc1 [Compound 13, 2-(4-imidazolyl)methylthio-cycloheptoimidazole]
- inhibition in vivo at 50 mg/kg [1]: 66.5%
- Inhibition of ethanol-induced ulcer [2]: 88.1%

Structure (SMILES): CN(C)c1ccc(C[S+]([O-])c2nc3cccccc-3n2)cc1 (centres unmarked) [Compound 49, 2-(p-Dimethylaminophenyl)methylthio-cycloheptoimidazole-S-oxide]
- inhibition in vivo at 50 mg/kg [1]: 33.6%

Structure (SMILES): CC(C)c1ccc2nc(SCc3ccccn3)nc-2cc1 [Compound 1, 2-(2-Pyridyl)methylthio-6-isopropyl-cycloheptoimidazole]
- inhibition in vivo at 50 mg/kg [1]: 80.5%

Structure (SMILES): Cc1nc(-c2ccccc2)c(CSc2nc3cccccc-3n2)o1 [Compound 37, 2-(2-Methyl-4-Phenyloxazole-5-yl)methylthio-cycloheptoimidazole]
- inhibition at 300 µM [3]: 48%

Structure (SMILES): CSc1nnc(CSc2nc3cccccc-3n2)s1 [Compound 8, 2-(2-Methylthio-1,3,4-thiadiazole-5-yl)methylthio-cycloheptoimidazole]
- inhibition in vivo at 50 mg/kg [1]: 20.6%
